# Columns and labels:
# [1] = tested on: rabbits; assay: Single dose ocular tolerance in rabbits; type: in vivo, rabbit; conditions: rabbits (10%)
# [2] = Single dose ocular and IV ADME study with [14C]-compound in rats, quantitative whole body autoradiography; type: in vivo, rat; conditions: tissue distribution in pigmented vs albino rats
# [3] = tested on: SEB stimulated IL-2 release in whole human blood; assay: cells; type: cell-based; conditions: read-out: IC50, inhibition of SEB stimulated IL-2 release
# [4] = Solubility studies; type: physicochemical
# [5] = Phase 1 clinical trial, plasma PK analysis; type: in vivo, human
# Protocol: Samples were also obtained at 48 hours post dose on Days 1, 14 and 27 and a single blood sample was collected at the follow-up visit at the end of the study.
# [6] = tested on: Chinese hamster ovary (CHO) cells; assay: In vitro chromosomal aberration assay in CHO cells; type: cell-based; conditions: with and without metabolic activation; except single toxic dose 3500 μg/mL without activation
# Source text: The biological relevance of this response is equivocal due to cytotoxicity.
# [7] = tested on: rats; assay: Respiratory function in rats, single IV bolus, head-out plethysmograph; type: in vivo, rat; conditions: any dose
# [8] = tested on: rabbits; assay: 13-week ocular toxicity study in rabbits with 4-week recovery (toxicity and TK); conditions: rabbits (3%)
# [9] = Single dose ADME study with [14C]-compound in dogs; type: in vivo; conditions: dog, for 16 hrs
# Source text: No differences in results from male and female dogs were observed.
# [10] = tested on: rats; assay: Pilot rat dermal study; type: in vivo; conditions: 1% lotion, ointment, gel, DMSO; TID seven days, 10 mg/cm^2
# Protocol: The safety and tolerability of prototypical dermal formulations (1% lotion, ointment, and gel) were assessed on rats given TID for seven consecutive days—approximately 6 cm^2 with 10 mg/cm^2.
# [11] = rabbit, in vivo, topical or ocular, 0.35 mg
# [12] = Plasma PK after single topical ocular instillation (dogs and rabbits); conditions: baseline levels by about 4 hours
# [13] = tested on: attachment of Jurkat cells to ICAM-1; assay: T-cell adhesion assay using Jurkat cells; type: cell-based, human
# Protocol: A reported LFA-1 antagonist was used as the positive control.
# Jurkat cells were labeled with an 8 μM solution of BCECF-AM (2′,7′-bis-(2-carboxyethyl)-5-(and-6)-carboxyfluorescein) in growth media at room temperature for 15 minutes. […] Non-adherent cells were removed by washing and centrifugation at 100 g for 1 minute. Adherent cells were determined as adherent fluorescent units on a fluorescent plate reader.
# [14] = Skin transport studies on microtomed human skin; type: in vitro ADME; conditions: 1% (w/w) prototypes; [^14C]-compound
# Source text: Prototypes have been developed and tested on microtomed human skin from elective surgery at 1% (w/w). The forms include gels, ointment, or lotion. […]
# [15] = tested on: rats; assay: 13-week IV toxicity study in rats with 4-week recovery (toxicity and plasma exposure); type: in vivo, rat
# [16] = daily IV bolus 3 mg/kg, Week 13
# [17] = daily IV bolus 10 mg/kg, Week 13
# [18] = daily IV bolus 30 mg/kg, Week 13
structure (smiles),measurement,setting,value
CS(=O)(=O)c1cccc(C[C@H](NC(=O)c2c(Cl)cc3c(c2Cl)CCN(C(=O)c2ccc4ccoc4c2)C3)C(=O)O)c1 [compound of Formula I],NOAEL,[1],3.5 mg/eye/3× per day
same,binding to melanin,[2],did not preferentially bind to melanin
same,IC50,[3],69 nM
same,solubility,[4]; ethanol/glycol/transcutol solution,10 % (w/w)
same,solubility,[4]; water/glycol/transcutol solution,2 % (w/w)
same,plasma concentration,"[5]; 0.1% dose strength, single and multiple doses, all timepoints (BLOQ)",< 0.500 ng/mL
same,plasma concentration,"[5]; 0.3% dose strength, single and multiple doses, all timepoints (BLOQ)",< 0.500 ng/mL
same,plasma concentration,"[5]; 1% dose strength, 3 of 5 subjects (BLOQ)",< 0.500 ng/mL
same,plasma concentration,"[5]; 5% dose strength, generally not detectable after the first hour",< 3 ng/mL
same,induction of structural chromosomal aberrations,[6],negative for inducing structural chromosomal aberrations
same,"respiratory function (tidal volume, respiration rate, minute volume)",[7],No adverse changes in respiratory function or adverse effects
same,NOAEL,[8],1.05 mg/eye/3× per day
same,levels in conjunctiva/cornea,[9],greater than 1 micromolar
same,serum level,[10],detectable in serum
same,Mean tear AUC,[11],18931 ng·h/mL
same,time of maximum plasma concentration post-dose,[12],about 0.25 hrs
same,Jurkat cell attachment to ICAM-1,[13],inhibition of Jurkat cell attachment with increasing dose
same,dose response curve and IC50,"[13]; compared with positive control, a reported LFA-1 antagonist",comparable to that of the known direct competitive LFA-1 antagonist
same,concentration in dermis,[14],greater than 10 micromolar
same,dose penetration,[14],2-4%
same,AUC0-n,"[15]; daily IV bolus 3 mg/kg, Day 1",148.3 ng·h/mL
same,Cmax,"[15]; daily IV bolus 3 mg/kg, Day 1",305.2 ng/mL
same,AUC0-n,[15]; [16],241.4 ng·h/mL
same,Cmax,[15]; [16],377.5 ng/mL
same,AUC0-n,"[15]; daily IV bolus 10 mg/kg, Day 1",535.6 ng·h/mL
same,Cmax,"[15]; daily IV bolus 10 mg/kg, Day 1",1045.3 ng/mL
same,AUC0-n,[15]; [17],907.1 ng·h/mL
same,Cmax,[15]; [17],1691.5 ng/mL
same,AUC0-n,"[15]; daily IV bolus 30 mg/kg, Day 1",2345.5 ng·h/mL
same,Cmax,"[15]; daily IV bolus 30 mg/kg, Day 1",5117.3 ng/mL
same,AUC0-n,[15]; [18],7471.5 ng·h/mL
same,Cmax,[15]; [18],16932.8 ng/mL
